Tests used:
Assay type in all cases: in vivo
[1] = tested on: Lolium perenne; experiment: Pre-emergence herbicidal assay, 96 cell trays, glasshouse; conditions: 168 h, Lollium, assessed 7 days after treatment, read-out: % control of plant growth; for pest or weed control at 200 g/ha: 0.2 kg/ha; for pest or weed control at 1000 g/ha: 1 kg/ha; for pest or weed control at 5000 g/ha: 5 kg/ha
Procedure: (§1) The compounds were screened at three concentrations (0.2, 1 and 5 kg/ha) against 2 weed species (Stellaria media—Chickweed and Lolium perenne). The seeds were sown in the cells of 96 cell trays (4-6 seeds per cell). For the pre-emergence assay, 75 μL of a suspension of the test compound, at the above doses, was added on top of the soil 1 day after sowing. For the post-emergence assay, the seedlings were sprayed with 200 μL of a suspension of the test compound two weeks after sowing. The formulation used is 25% acetone and 75% water/0.01% Tween 20. Each treatment was replicated three times. The plants were kept in a glasshouse (uncontrolled conditions) and assessed 7 days after treatment. A small number of compounds were tested in a first trial. A larger number of compounds were tested in a second trial. The assessment was based on the % control of plant growth in each cell.

[2] = tested on: Stellaria media—Chickweed; experiment: as above; conditions: 168 h, assessed 7 days after treatment, read-out: % control of plant growth; for pest or weed control at 200 g/ha: 0.2 kg/ha; for pest or weed control at 1000 g/ha: 1 kg/ha; for pest or weed control at 5000 g/ha: 5 kg/ha
Procedure: as §1

[3] = tested on: Lolium perenne; experiment: Post-emergence herbicidal assay, 96 cell trays, glasshouse; conditions: 168 h, Lollium, assessed 7 days after treatment, read-out: % control of plant growth; for pest or weed control at 200 g/ha: 0.2 kg/ha; for pest or weed control at 1000 g/ha: 1 kg/ha; for pest or weed control at 5000 g/ha: 5 kg/ha
Procedure: as §1

[4] = tested on: Stellaria media—Chickweed; experiment: as above; conditions: 168 h, assessed 7 days after treatment, read-out: % control of plant growth; for pest or weed control at 200 g/ha: 0.2 kg/ha; for pest or weed control at 1000 g/ha: 1 kg/ha; for pest or weed control at 5000 g/ha: 5 kg/ha
Procedure: as §1

Structure (SMILES) | pest or weed control at 200 g/ha ([1]; first trial (Table 1)) [%] | pest or weed control at 1000 g/ha ([1]; first trial (Table 1)) [%] | pest or weed control at 5000 g/ha ([1]; first trial (Table 1)) [%] | pest or weed control at 200 g/ha ([1]; second trial (Table 2)) [%] | pest or weed control at 1000 g/ha ([1]; second trial (Table 2)) [%] | pest or weed control at 5000 g/ha ([1]; second trial (Table 2)) [%] | pest or weed control at 200 g/ha ([2]; first trial (Table 1)) [%] | pest or weed control at 1000 g/ha ([2]; first trial (Table 1)) [%] | pest or weed control at 5000 g/ha ([2]; first trial (Table 1)) [%] | pest or weed control at 200 g/ha ([2]; second trial (Table 2)) [%] | pest or weed control at 1000 g/ha ([2]; second trial (Table 2)) [%] | pest or weed control at 5000 g/ha ([2]; second trial (Table 2)) [%] | pest or weed control at 200 g/ha ([3]; first trial (Table 1)) [%] | pest or weed control at 1000 g/ha ([3]; first trial (Table 1)) [%] | pest or weed control at 200 g/ha ([3]; second trial (Table 2)) [%] | pest or weed control at 1000 g/ha ([3]; second trial (Table 2)) [%] | pest or weed control at 5000 g/ha ([3]; second trial (Table 2)) [%] | pest or weed control at 200 g/ha ([4]; second trial (Table 2)) [%] | pest or weed control at 1000 g/ha ([4]; second trial (Table 2)) [%] | pest or weed control at 5000 g/ha ([4]; second trial (Table 2)) [%] | further results
C#CCN1C(=O)C2(CC2)Oc2cc(F)c(-n3c(=O)n(C)c(=S)n(C)c3=O)cc21 [Comparative Example, 3-(7-Fluoro-3-oxo-4-(prop-2-yn-1-yl)-3,4-dihydrospiro[benzo[b][1,4]oxazine-2,1′-cyclopropan]-6-yl)-1,5-dimethyl-6-thioxo-1,3,5-triazinane-2,4-dione, reference compound] | < 20 | 20 to 80 | 80 to 100 | < 20 | 20 to 80 | 80 to 100 | < 20 | < 20 | < 20 | 20 to 80 | 80 to 100 | 80 to 100 | 20 to 80 | 20 to 80 | 20 to 80 | 20 to 80 | 80 to 100 | 20 to 80 | 80 to 100 | 80 to 100 | pest or weed control at 5000 g/ha ([3]; first trial (Table 1)): 80 to 100%; pest or weed control at 200 g/ha ([4]; first trial (Table 1)): < 20%; pest or weed control at 1000 g/ha ([4]; first trial (Table 1)): 20 to 80%; pest or weed control at 5000 g/ha ([4]; first trial (Table 1)): 20 to 80%
C#CCN1C(=O)C2(CC2)Oc2cc(F)c(N3C(=O)C4=C(CCCC4)C3=O)cc21 [Example 1, 2-(7-Fluoro-3-oxo-4-(prop-2-yn-1-yl)-3,4-dihydrospiro[benzo[b][1,4]oxazine-2,1′-cyclopropan]-6-yl)-4,5,6,7-tetrahydro-1H-isoindole-1,3(2H)-dione] | 20 to 80 | 20 to 80 | 20 to 80 | 20 to 80 | 20 to 80 | 80 to 100 | < 20 | < 20 | < 20 | 20 to 80 | 80 to 100 | 80 to 100 | < 20 | 20 to 80 | 20 to 80 | 80 to 100 | 80 to 100 | 80 to 100 | 80 to 100 | 80 to 100 | pest or weed control at 5000 g/ha ([3]; first trial (Table 1)): 80 to 100%; pest or weed control at 200 g/ha ([4]; first trial (Table 1)): < 20%; pest or weed control at 1000 g/ha ([4]; first trial (Table 1)): 20 to 80%; pest or weed control at 5000 g/ha ([4]; first trial (Table 1)): 20 to 80%
C#CCN1C(=O)C2(CC2)Oc2cc(F)c(N3C(=O)C(=O)N(CCC)C3=S)cc21 [Example 2, 1-(7-Fluoro-3-oxo-4-(prop-2-yn-1-yl)-3,4-dihydrospiro[benzo[b][1,4]oxazine-2,1′-cyclopropan]-6-yl)-3-propyl-2-thioxoimidazolidine-4,5-dione] | < 20 | < 20 | < 20 | < 20 | < 20 | < 20 | 20 to 80 | 20 to 80 | 20 to 80 | 20 to 80 | 20 to 80 | 20 to 80 | < 20 | < 20 | < 20 | < 20 | < 20 | 20 to 80 | 20 to 80 | 20 to 80 | pest or weed control at 5000 g/ha ([3]; first trial (Table 1)): < 20%; pest or weed control at 200 g/ha ([4]; first trial (Table 1)): 20 to 80%; pest or weed control at 1000 g/ha ([4]; first trial (Table 1)): 20 to 80%; pest or weed control at 5000 g/ha ([4]; first trial (Table 1)): 20 to 80%
C#CCN1C(=O)C2(CC2)Oc2cc(F)c(-n3nc(C(C)(C)C)oc3=O)cc21 [Example 3, 6-(5-(tert-Butyl)-2-oxo-1,3,4-oxadiazol-3(2H)-yl)-7-fluoro-4-(prop-2-yn-1-yl)spiro[benzo[b][1,4]oxazine-2,1′-cyclopropan]-3(4H)-one] | < 20 | 20 to 80 | 80 to 100 | – | – | – | 20 to 80 | 80 to 100 | 80 to 100 | – | – | – | 20 to 80 | 80 to 100 | – | – | – | – | – | – | pest or weed control at 5000 g/ha ([3]; first trial (Table 1)): 80 to 100%; pest or weed control at 200 g/ha ([4]; first trial (Table 1)): 20 to 80%; pest or weed control at 1000 g/ha ([4]; first trial (Table 1)): 20 to 80%; pest or weed control at 5000 g/ha ([4]; first trial (Table 1)): 20 to 80%
C#CCN1C(=O)C2(CC2)Oc2cc(F)c(N3C(=O)c4ccc(F)cc4C3=O)cc21 [Example 5] | – | – | – | – | 20 to 80 | 80 to 100 | – | – | – | – | 80 to 100 | 80 to 100 | – | – | 20 to 80 | 20 to 80 | 80 to 100 | 80 to 100 | 80 to 100 | 80 to 100 | –
C#CCN1C(=O)C2(CC2)Oc2cc(F)c(N3C(=O)c4cccc(F)c4C3=O)cc21 [Example 6] | – | – | – | < 20 | < 20 | 20 to 80 | – | – | – | 20 to 80 | 20 to 80 | 80 to 100 | – | – | 20 to 80 | 80 to 100 | 80 to 100 | 20 to 80 | 80 to 100 | 80 to 100 | –
O=C1N(CC2CC2)c2cc(/N=c3\sc(=O)n4n3CCCC4)c(F)cc2OC12CC2 [Example 37] | – | – | – | – | – | – | – | – | – | – | – | – | – | – | 20 to 80 | 20 to 80 | 80 to 100 | 80 to 100 | 80 to 100 | 80 to 100 | –
